Results: US20150099774A1, “Pyrido [3,4-C] [1,9] phenanthroline and 11, 12 dihydropyrido [3,4-C] [1,9] phenanthroline derivatives and the use thereof, particularly for treating cancer” (CHRISTIAN-ALBRECHTS-UNIVERSITAET ZU KIEL, priority 2012, published 2015)

Key:
Type in all cases: cell-based, human
SK-MEL-28 = experiment: NCI in vitro anti-tumor screening, 1 μM, SRB; conditions: c = 1 μM; SK-MEL-28 (Melanoma); two days
HL-60(TB) = experiment: NCI in vitro anti-tumor screening, 1 μM, SRB; conditions: c = 1 μM; HL-60(TB) (Leukemia); two days
UACC-257 = experiment: NCI in vitro anti-tumor screening, 1 μM, SRB; conditions: c = 1 μM; UACC-257 (Melanoma); two days
Leukemia cell lines = experiment: NCI in vitro anti-tumor screening, 1 μM, mean of leukemia lines; conditions: c = 1 μM
MALME-3M = experiment: NCI in vitro anti-tumor screening, 1 μM, SRB; conditions: c = 1 μM; MALME-3M (Melanoma); two days
LOX IMVI = experiment: NCI in vitro anti-tumor screening, 1 μM, SRB; conditions: c = 1 μM; LOX IMVI (Melanoma); two days
Breast cancer cell lines = experiment: NCI in vitro anti-tumor screening, 1 μM, mean of breast cancer lines; conditions: c = 1 μM
BT-549 = experiment: NCI in vitro anti-tumor screening, 1 μM, SRB; conditions: c = 1 μM; BT-549 (Breast cancer); two days
MOLT-4 = experiment: NCI in vitro anti-tumor screening, 1 μM, SRB; conditions: c = 1 μM; MOLT-4 (Leukemia); two days
MDA-MB-435 = experiment: NCI in vitro anti-tumor screening, 1 μM, SRB; conditions: c = 1 μM; MDA-MB-435 (Melanoma); two days
UACC-62 = experiment: NCI in vitro anti-tumor screening, 1 μM, SRB; conditions: c = 1 μM; UACC-62 (Melanoma); two days
MCF7 = experiment: NCI in vitro anti-tumor screening, 1 μM, SRB; conditions: c = 1 μM; MCF7 (Breast cancer); two days
M14 = experiment: NCI in vitro anti-tumor screening, 1 μM, SRB; conditions: c = 1 μM; M14 (Melanoma); two days
60 tumor cell lines [1] = experiment: NCI in vitro anti-tumor screening, 1 μM, all 60 cell lines; conditions: c = 1 μM; for growth inhibitory effect (in words): leukemia, melanoma, breast cancer lines of Tables I and II
SK-MEL-5 = experiment: NCI in vitro anti-tumor screening, 1 μM, SRB; conditions: c = 1 μM; SK-MEL-5 (Melanoma); two days
Melanoma cell lines = experiment: NCI in vitro anti-tumor screening, 1 μM, mean of melanoma lines; conditions: c = 1 μM
RPMI-8226 = experiment: NCI in vitro anti-tumor screening, 1 μM, SRB; conditions: c = 1 μM; RPMI-8226 (Leukemia); two days
K-562 = experiment: NCI in vitro anti-tumor screening, 1 μM, SRB; conditions: c = 1 μM; K-562 (Leukemia); two days
MDA-MB-468 = experiment: NCI in vitro anti-tumor screening, 1 μM, SRB; conditions: c = 1 μM; MDA-MB-468 (Breast cancer); two days
T-47D = experiment: NCI in vitro anti-tumor screening, 1 μM, SRB; conditions: c = 1 μM; T-47D (Breast cancer); two days
SK-MEL-2 = experiment: NCI in vitro anti-tumor screening, 1 μM, SRB; conditions: c = 1 μM; SK-MEL-2 (Melanoma); two days
MDA-MB-231/ATCC = experiment: NCI in vitro anti-tumor screening, 1 μM, SRB; conditions: c = 1 μM; MDA-MB-231/ATCC (Breast cancer); two days
CCRF-CEM = experiment: NCI in vitro anti-tumor screening, 1 μM, SRB; conditions: c = 1 μM; CCRF-CEM (Leukemia); two days
HS-578T = experiment: NCI in vitro anti-tumor screening, 1 μM, SRB; conditions: c = 1 μM; HS-578T (Breast cancer); two days
SR = experiment: NCI in vitro anti-tumor screening, 1 μM, SRB; conditions: c = 1 μM; SR (Leukemia); two days
60 tumor cell lines [2] = experiment: NCI 5 dose assay, dose-response (GI50, MG_MID); conditions: for GI50: Homo sapiens, calculated from mean graph midpoint; for GI50 / MG_MID (mean-graph midpoint, mean of the logarithms GI50 values): all 60 cell lines; for MG_MID (mean-graph midpoint, mean of the logarithms GI50 values): 5 concentrations
From the text: It has been shown in the experiments carried out according to the present invention that the above-described phenanthroline derivates have antitumoral properties. Due to their structural similarity it is to be assumed that they have also antimicrobial, antifungal, antiviral and anti-inflammatory properties like the benzo[c]phenanthridines. For investigating the pharmacological properties the compounds of general formulas I and II, as well as compounds of the substance class III were investigated in an “in vitro anti-tumor screening” of the National Cancer Institute (NCI), Bethesda, Md., USA. 60 different human pathogenic tumor cell lines were tested, which originate from nine cancer types (leukemia, non-small cell lung carcinoma, colon cancer, CNS cancer, melanoma, ovarian cancer, renal cancer, prostate cancer, breast cancer). For determining the efficacy, the tumor cells are exposed to the compounds for two days and thereafter the growth inhibition is indirectly determined through the determination of the protein biomass with sulforhodamine B (SRB). Untreated cultures serve as reference.
Furthermore, it can be seen from tables I and II that the here tested phenanthrolin derivatives according to the present invention have selectivities for certain tumor types. The most marked growth inhibitory effect is for tumor cells of leukemia. Furthermore, a degree of selectivity for tumor cells of melanoma and mamma carcinoma (breast cancer) can be seen. […] The GI50 (growth inhibition 50%) describes here the concentration of the test substance required for inhibiting cell growth by 50%. […] Develop. Res., 34, (1995) 91-109,]
Exemplary for 6-amino-11-(3-bromophenyl)-11,12-dihydropyrido[3,4-c][1,9] phenanthrol are the dose-response curves shown in FIGS. 1 to 9. The nine different Figures include the various types of cancer. The percentage of growth, depending on the concentration of the compound is plotted (as log10 of the molar concentrations). The individual curves for each type of cancer are different cell lines of this type of cancer, which appear as legends in their usual abbreviations. Horizontal lines in the Figures denote percent growth +100, +50, 0, −50, −100. 100% growth means e.g. no difference to growth after two days without added substance.

SMILES	Percentage cell growth (SK-MEL-28)	Percentage cell growth (HL-60(TB))	Percentage cell growth (UACC-257)	Percentage cell growth, Arithmetic mean (Leukemia cell lines)	Percentage cell growth (MALME-3M)	Percentage cell growth (LOX IMVI)	Percentage cell growth, Arithmetic mean (Breast cancer cell lines)	Percentage cell growth (BT-549)	Percentage cell growth (MOLT-4)	Percentage cell growth (MCF7)	Percentage cell growth (M14)	Percentage cell growth, Arithmetic mean of all 60 cell lines (60 tumor cell lines [1])	Percentage cell growth (SK-MEL-5)	Percentage cell growth, Arithmetic mean (Melanoma cell lines)	Percentage cell growth (RPMI-8226)	Percentage cell growth (K-562)	Percentage cell growth (MDA-MB-468)	Percentage cell growth (T-47D)	GI50 (60 tumor cell lines [2])	MG_MID (mean-graph midpoint, mean of the logarithms GI50 values) (60 tumor cell lines [2])	also measured
Nc1nc2c(c3ccncc13)C(c1ccc(Br)cc1)Cc1ccncc1-2 (centres unmarked)	112.5%	70.3%	107.8%	73.8%	98.2%	95.7%	80.8%	67.8%	75.3%	83.4%	93.4%	90.5%	86.2%	97.4%	64.7%	84.9%	87.6%	84.6%	–	–	Percentage cell growth (MDA-MB-435): 107%; Percentage cell growth (UACC-62): 81.7%; Percentage cell growth (SK-MEL-2): 94.1%; Percentage cell growth (MDA-MB-231/ATCC): 80.6%
COc1cccc(-c2cc3ccncc3c3nc(N)c4cnccc4c23)c1OC	119.5%	118.7%	126.3%	92.1%	123.8%	89.3%	90.9%	95.0%	90.1%	89.9%	94.8%	98.0%	86.3%	95.2%	96.8%	88.8%	81.5%	97.4%	–	–	Percentage cell growth (CCRF-CEM): 74.9%; Percentage cell growth (HS-578T): 90.5%; Percentage cell growth (UACC-62): 99.1%; growth inhibitory effect (in words) (60 tumor cell lines [1]): disadvantageous; Percentage cell growth (SR): 83.5%; Percentage cell growth (SK-MEL-2): 117.3%; Percentage cell growth (MDA-MB-231/ATCC): 90.8%
COc1cc(-c2cc3ccncc3c3nc(N)c4cnccc4c23)cc(OC)c1OC	41.5%	−0.9%	30.9%	12.3%	35.5%	−30.4%	8.2%	8.31%	−8.9%	22.8%	9.5%	16.8%	2.2%	22.1%	33.5%	29.9%	−23.6%	36%	–	–	Percentage cell growth (CCRF-CEM): 7.2%; Percentage cell growth (HS-578T): −2.5%; growth inhibitory effect (in words) (60 tumor cell lines [1]): best results; Percentage cell growth (SR): 13.1%; Percentage cell growth (SK-MEL-2): 65.3%
Nc1nc2c3cnccc3cc(-c3ccco3)c2c2ccncc12	42.4%	13.9%	69.8%	24.6%	59.7%	2.3%	40.0%	16.2%	−0.9%	25.0%	37.0%	39.1%	20.0%	45.5%	62.7%	51.6%	35.6%	48.4%	–	–	Percentage cell growth (CCRF-CEM): 12.4%; Percentage cell growth (UACC-62): 41.0%; growth inhibitory effect (in words) (60 tumor cell lines [1]): good cytotoxic effects; Percentage cell growth (SR): 7.8%; Percentage cell growth (SK-MEL-2): 91.8%; Percentage cell growth (MDA-MB-231/ATCC): 74.9%
COc1cc2c(ccc3c4cc(OC)c(OC)cc4c[n+](C)c23)cc1O [Fagaronine, reference compound]	–	–	–	–	–	–	–	–	–	–	–	–	–	–	–	–	–	–	9.48 µM	−5.00	–
Nc1cc2c(c3cnccc13)NCc1cnccc1-2 [P4, 6-amino-11,12-dihydropyrido[3,4-c][1,9]phenanthroline]	–	–	–	–	–	–	–	–	–	–	–	–	–	–	–	–	–	–	8.13 µM	−5.09	–
Nc1cc2c(c3cnccc13)N(c1cccc(Br)c1)Cc1cnccc1-2 [P5, 6-amino-11-(3-bromophenyl)-11,12-dihydro-pyrido-[3,4-c][1,9]phenanthroline]	–	–	–	–	–	–	–	–	–	–	–	–	–	–	–	–	–	–	2.69 µM	−5.57	percent growth versus concentration (dose-response curves, FIGS. 1 to 9) (60 tumor cell lines [2]; nine cancer types, 5 dose assay): with increasing concentrations of the substance, the percent growth decreases
O=C1CC2=C(c3cnccc31)N(c1cccc(Br)c1)Cc1cnccc12 [P5-O, 11-(3-bromophenyl)-6-oxo-5,6,11,12-tetrahydropyrido[3,4-c][1,9]phenanthroline]	–	–	–	–	–	–	–	–	–	–	–	–	–	–	–	–	–	–	8.51 µM	−5.07	–
Nc1cc2c(c3cnccc13)N(c1cccc(Cl)c1)Cc1cnccc1-2 [P16, 6-amino-11-(3-chlorophenyl)-11,12 dihydropyrido-[3,4-c][1,9]phenanthroline]	–	–	–	–	–	–	–	–	–	–	–	–	–	–	–	–	–	–	3.8 µM	−5.42	–
Nc1cc2c(c3cnccc13)N(c1ccc(Cl)c(Cl)c1)Cc1cnccc1-2 [P26, 6-amino-11-(3,4-di-chlorophenyl)-11,12-dihydropyrido-[3,4-c][1,9]phenanthroline]	–	–	–	–	–	–	–	–	–	–	–	–	–	–	–	–	–	–	6.02 µM	−5.22	–
